Like-named read-outs stand apart in the source and are kept apart here.
Experiments:
[1] = system: HCV genotype 1a (H77 strain) replicon in HUH-7 cells; assay: HCV replicon luciferase reporter assay, genotype 1a; format: cell-based; conditions: Hepatitis C virus, Huh-7, 72 h, HCV genotype 1a replicon luciferase assay, 3 days incubation, range class, read-out: LE_1a (EC50, range)
Method in brief: (§1)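 Replicon inhibition for both genotypes was measured as Renilla luciferase signal (EnduRen, 7.5 μM final, 2 h) after 3-day, 37° C exposure of replicon-bearing HUH-7 cells in 4% FCS DMEM, 0.5% DMSO. The 1b construct carries S1179I; the 1a H77 construct carries P1496L and S2204I. Twenty-point, 3-fold dilutions were fitted four-parametrically for EC50, and CC50 was taken from multiplexed Cell Titer-Blue.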

[2] = system: HCV genotype 1b (Con1) replicon in HUH-7 cells; assay: HCV replicon luciferase reporter assay, genotype 1b; format: cell-based; conditions: Hepatitis C virus, Huh-7, 72 h, HCV genotype 1b replicon luciferase assay, 3 days incubation, range class, read-out: LE_1b (EC50, range)
Method in brief: as §1

Compound	EC50 [1] [nM]	EC50 [2] [nM]	EC50 ([1]; GETYPE1A) [nM]	EC50 ([2]; GETYPE1B) [nM]
COc1cccc2c(O[C@@H]3C[C@H]4C(=O)N[C@]5(C(=O)NS(=O)(=O)C6(C)CC6)C[C@H]5/C=C\CC[C@H](C)C[C@@H](C)[C@H](NC(=O)OC(C)(C)C)C(=O)N4C3)nccc12 [Compound 3035, tert-butyl ((2R,6S,7R,9S,13aS,14aR,16aS,Z)-2-((5-methoxyisoquinolin-1-yl)oxy)-7,9-dimethyl-14a-(((1-methylcyclopropyl)sulfonyl)carbamoyl)-5,16-dioxo-1,2,3,5,6,7,8,9,10,11,13a,14,14a,15,16,16a-hexadecahydrocyclopropa[e]pyrrolo[1,2-a][1,4]diazacyclopentadecin-6-yl)carbamate]	4.82 to 103	< 5.46		
COc1cccc2c(O[C@@H]3C[C@H]4C(=O)N[C@]5(C(=O)NS(=O)(=O)C6(C)CC6)C[C@H]5/C=C\CC[C@@H](C)C[C@@H](C)[C@H](NC(=O)OC(C)(C)C)C(=O)N4C3)nccc12 [Compound 3036, tert-butyl ((2R,6S,7R,9R,13aS,14aR,16aS,Z)-2-((5-methoxyisoquinolin-1-yl)oxy)-7,9-dimethyl-14a-(((1-methylcyclopropyl)sulfonyl)carbamoyl)-5,16-dioxo-1,2,3,5,6,7,8,9,10,11,13a,14,14a,15,16,16a-hexadecahydrocyclopropa[e]pyrrolo[1,2-a][1,4]diazacyclopentadecin-6-yl)carbamate]	< 5.46	< 5.46		
COc1cccc2c(O[C@@H]3C[C@H]4C(=O)N[C@]5(C(=O)NS(=O)(=O)C6(C)CC6)C[C@H]5/C=C\CC[C@H](C)C[C@@H](C)[C@H](NC(=O)OC(C)(C)C(F)(F)F)C(=O)N4C3)nccc12 [Compound 3037, 1,1,1-trifluoro-2-methylpropan-2-yl((2R,6S,7R,9S,13aS,14aR,16aS,Z)-2-((5-methoxyisoquinolin-1-yl)oxy)-7,9-dimethyl-14a-(((1-methylcyclopropyl)sulfonyl)carbamoyl)-5,16-dioxo-1,2,3,5,6,7,8,9,10,11,13a,14,14a,15,16,16a-hexadecahydrocyclopropa[e]pyrrolo[1,2-a][1,4]diazacyclopentadecin-6-yl)carbamate]	4.82 to 103	< 5.46		
COc1cccc2c(O[C@@H]3C[C@H]4C(=O)N[C@]5(C(=O)NS(=O)(=O)C6(CF)CC6)C[C@H]5/C=C\CC[C@@H](C)C[C@@H](C)[C@H](NC(=O)OC(C)(C)C)C(=O)N4C3)nccc12 [Compound 3039, tert-butyl ((2R,6S,7R,9R,13aS,14aR,16aS,Z)-14a-(((1-(fluoromethyl)cyclopropyl)sulfonyl)carbamoyl)-2-((5-methoxyisoquinolin-1-yl)oxy)-7,9-dimethyl-5,16-dioxo-1,2,3,5,6,7,8,9,10,11,13a,14,14a,15,16,16a-hexadecahydrocyclopropa[e]pyrrolo[1,2-a][1,4]diazacyclopentadecin-6-yl)carbamate]	< 5.46	< 5.46		
COc1cccc2c(O[C@@H]3C[C@H]4C(=O)N[C@]5(C(=O)NS(=O)(=O)C6(CF)CC6)C[C@H]5/C=C\CC[C@@H](C)C[C@@H](C)[C@H](NC(=O)OC(C)(C)C(F)(F)F)C(=O)N4C3)nccc12 [Compound 3040]			< 5.46	< 5.46
COc1ccc2c(O[C@@H]3C[C@H]4C(=O)N[C@]5(C(=O)NS(=O)(=O)C6CC6)C[C@H]5/C=C\CC[C@H](C)C[C@@H](C)[C@H](NC(=O)OC(C)(C)C)C(=O)N4C3)nc(-c3ccc(F)cc3)cc2c1 [Compound 3041, tert-butyl ((2R,6S,7R,9S,13aS,14aR,16aS,Z)-14a-((cyclopropylsulfonyl)carbamoyl)-2-((3-(4-fluorophenyl)-6-methoxyisoquinolin-1-yl)oxy)-7,9-dimethyl-5,16-dioxo-1,2,3,5,6,7,8,9,10,11,13a,14,14a,15,16,16a-hexadecahydrocyclopropa[e]pyrrolo[1,2-a][1,4]diazacyclopentadecin-6-yl)carbamate]	< 5.46	< 5.46		
COc1ccc2c(O[C@@H]3C[C@H]4C(=O)N[C@]5(C(=O)NS(=O)(=O)C6CC6)C[C@H]5/C=C\CC[C@@H](C)C[C@@H](C)[C@H](NC(=O)OC(C)(C)C)C(=O)N4C3)nc(-c3ccc(F)cc3)cc2c1 [Compound 3042, tert-butyl ((2R,6S,7R,9R,13aS,14aR,16aS,Z)-14a-((cyclopropylsulfonyl)carbamoyl)-2-((3-(4-fluorophenyl)-6-methoxyisoquinolin-1-yl)oxy)-7,9-dimethyl-5,16-dioxo-1,2,3,5,6,7,8,9,10,11,13a,14,14a,15,16,16a-hexadecahydrocyclopropa[e]pyrrolo[1,2-a][1,4]diazacyclopentadecin-6-yl)carbamate]	< 5.46	< 5.46		
COc1ccc2c(O[C@@H]3C[C@H]4C(=O)N[C@]5(C(=O)NS(=O)(=O)C6CC6)C[C@H]5/C=C\CC[C@H](C)C[C@@H](C)[C@H](NC(=O)OC(C)(C)C(F)(F)F)C(=O)N4C3)nc(-c3ccc(F)cc3)cc2c1 [Compound 3043, 1,1,1-trifluoro-2-methylpropan-2-yl((2R,6S,7R,9S,13aS,14aR,16aS,Z)-14a-((cyclopropylsulfonyl)carbamoyl)-2-((3-(4-fluorophenyl)-6-methoxyisoquinolin-1-yl)oxy)-7,9-dimethyl-5,16-dioxo-1,2,3,5,6,7,8,9,10,11,13a,14,14a,15,16,16a-hexadecahydrocyclopropa[e]pyrrolo[1,2-a][1,4]diazacyclopentadecin-6-yl)carbamate]	< 5.46	< 5.46		
COc1ccc2c(O[C@@H]3C[C@H]4C(=O)N[C@]5(C(=O)NS(=O)(=O)C6CC6)C[C@H]5/C=C\CC[C@@H](C)C[C@@H](C)[C@H](NC(=O)OC(C)(C)C(F)(F)F)C(=O)N4C3)nc(-c3ccc(F)cc3)cc2c1 [Compound 3044, 1,1,1-trifluoro-2-methylpropan-2-yl((2R,6S,7R,9R,13aS,14aR,16aS,Z)-14a-((cyclopropylsulfonyl)carbamoyl)-2-((3-(4-fluorophenyl)-6-methoxyisoquinolin-1-yl)oxy)-7,9-dimethyl-5,16-dioxo-1,2,3,5,6,7,8,9,10,11,13a,14,14a,15,16,16a-hexadecahydrocyclopropa[e]pyrrolo[1,2-a][1,4]diazacyclopentadecin-6-yl)carbamate]	< 5.46	< 5.46		
COc1ccc2c(O[C@@H]3C[C@H]4C(=O)N[C@]5(C(=O)NS(=O)(=O)C6CC6)C[C@H]5/C=C\CC[C@H](C)C[C@@H](C)[C@H](NC(=O)O[C@@H]5C[C@@H]6C[C@@H]6C5)C(=O)N4C3)nc(-c3ccc(F)cc3)cc2c1 [Compound 3045, (1R,3r,5S)-bicyclo[3.1.0]hexan-3-yl((2R,6S,7R,9S,13aS,14aR,16aS,Z)-14a-((cyclopropylsulfonyl)carbamoyl)-2-((3-(4-fluorophenyl)-6-methoxyisoquinolin-1-yl)oxy)-7,9-dimethyl-5,16-dioxo-1,2,3,5,6,7,8,9,10,11,13a,14,14a,15,16,16a-hexadecahydrocyclopropa[e]pyrrolo[1,2-a][1,4]diazacyclopentadecin-6-yl)carbamate]	< 5.46	< 5.46		
COc1ccc2c(O[C@@H]3C[C@H]4C(=O)N[C@]5(C(=O)NS(=O)(=O)C6CC6)C[C@H]5/C=C\CC[C@@H](C)C[C@@H](C)[C@H](NC(=O)O[C@@H]5C[C@@H]6C[C@@H]6C5)C(=O)N4C3)nc(-c3ccc(F)cc3)cc2c1 [Compound 3046, (1R,3r,5S)-bicyclo[3.1.0]hexan-3-yl((2R,6S,7R,9R,13aS,14aR,16aS,Z)-14a-((cyclopropylsulfonyl)carbamoyl)-2-((3-(4-fluorophenyl)-6-methoxyisoquinolin-1-yl)oxy)-7,9-dimethyl-5,16-dioxo-1,2,3,5,6,7,8,9,10,11,13a,14,14a,15,16,16a-hexadecahydrocyclopropa[e]pyrrolo[1,2-a][1,4]diazacyclopentadecin-6-yl)carbamate]	< 5.46	< 5.46		
COc1ccc2c(O[C@@H]3C[C@H]4C(=O)N[C@]5(C(=O)NS(=O)(=O)C6CC6)C[C@H]5/C=C\CC[C@H](C)C[C@@H](C)[C@H](NC(=O)OC(C)(C)C)C(=O)N4C3)nc(-c3ccc(OC)c(Cl)c3)cc2c1 [Compound 3047, tert-butyl ((2R,6S,7R,9S,13aS,14aR,16aS,Z)-2-((3-(3-chloro-4-methoxyphenyl)-6-methoxyisoquinolin-1-yl)oxy)-14a-((cyclopropylsulfonyl)carbamoyl)-7,9-dimethyl-5,16-dioxo-1,2,3,5,6,7,8,9,10,11,13a,14,14a,15,16,16a-hexadecahydrocyclopropa[e]pyrrolo[1,2-a][1,4]diazacyclopentadecin-6-yl)carbamate]	4.82 to 103	< 5.46		
COc1ccc2c(O[C@@H]3C[C@H]4C(=O)N[C@]5(C(=O)NS(=O)(=O)C6CC6)C[C@H]5/C=C\CC[C@@H](C)C[C@@H](C)[C@H](NC(=O)OC(C)(C)C)C(=O)N4C3)nc(-c3ccc(OC)c(Cl)c3)cc2c1 [Compound 3048, tert-butyl ((2R,6S,7R,9R,13aS,14aR,16aS,Z)-2-((3-(3-chloro-4-methoxyphenyl)-6-methoxyisoquinolin-1-yl)oxy)-14a-((cyclopropylsulfonyl)carbamoyl)-7,9-dimethyl-5,16-dioxo-1,2,3,5,6,7,8,9,10,11,13a,14,14a,15,16,16a-hexadecahydrocyclopropa[e]pyrrolo[1,2-a][1,4]diazacyclopentadecin-6-yl)carbamate]	< 5.46	< 5.46		

From patent publication US9499550B2 (BRISTOL-MYERS SQUIBB COMPANY, priority 2012, dated 2016)
